Consider 24 compounds from PMC7815808, “Enzyme and lateral flow monoclonal antibody-based immunoassays to simultaneously determine spirotetramat and spirotetramat-enol in foodstuffs” (Scientific Reports, 2021).

One series concerns mAb SPm#23. As to the kind of experiment: Antibody specificity (cross-reactivity) of the selected mAb. In kind it is binding, mouse. To be noted: for CR (%): cross-reactivity of the selected mAb, SP-enol = 100, n=3. Here is the method: (§1) Concerning specificity, the two assayed immunogens (BSA‒SPm and BSA‒SPo) afforded equivalent results. […] Cross-reactivity with the main SP metabolites was studied with antibody SPm#23.
(§2) Microplates were precoated with GAM in order to immobilise the mAb. The competitive step was carried out by mixing the analyte solution or diluted sample with the enzyme tracer solution. Standard curves were built in borosilicate glass tubes from 0.03 to 30 nM by a threefold serial dilution of the most concentrated standard solution, and a blank (no analyte) was also run. Concentrated stock solutions of the analytes in anhydrous DMF were used to prepare the most concentrated standard solution—the DMF concentration was always lower than 0.1% (v/v). The complete immunoassay procedure can be found in the Supplementary Information file.
(§3) Table S1. Specificity of the
(§4) 7. Direct competitive ELISA procedure
(§5) The same protocol previously described for this format was applied.7 Briefly, plates were coated with 100 µL per well of 1 µg/mL GAM solution in carbonate‒bicarbonate buffer, pH 9.6, by overnight incubation at 4 °C. Wells were washed four times with washing solution (150 mM NaCl with 0.05% (v/v) Tween-20) after each incubation step. Then, 100 µL per well of specific mAb solution in PBS-T was added and plates were incubated at room temperature during 1 h. The competitive reaction was carried out by adding 50 µL per well of analyte solution or diluted sample and 50 µL per well of tracer […]
(§6) enzyme substrate solution (2 mg/mL o-phenylendiamine and 0.012% (v/v) H2O2 in 25 mM sodium citrate and 62 mM sodium phosphate buffer, pH 5.4). Ten minutes later, the enzyme reaction was stopped by adding 100 µL per well of 1 M H2SO4.
8. Influence of pH and ionic strength
Figure S5. Influence of pH and ionic strength over the Amax and IC50 values of the spirotetramat-enol standard curve of the studied direct cELISA.
(§7) 7 E. Ceballos-Alcantarilla, D. López-Puertollano, C. Agulló, A. Abad-Fuentes, A. Abad-Somovilla, J. V. Mercader.
Combined heterologies for monoclonal antibody-based immunoanalysis of fluxapyroxad. Analyst 143, 5718‒ […]

Series [1] in a line: Spirotetramat hydrolysis study by HPLC‒MS/MS. The class given is physicochemical. More on the design: content found by HPLC–MS/MS, sample treatment A / content found by HPLC–MS/MS, sample treatment B / content found by HPLC–MS/MS, sample treatment C / content found by HPLC–MS/MS, sample treatment D: unit not given beside the values. The following applies: for content found by HPLC–MS/MS, sample treatment A: SP hydrolysed (40 mM NaOH, 10 min, room temperature); for content found by HPLC–MS/MS, sample treatment B: SP without hydrolysis; for content found by HPLC–MS/MS, sample treatment C: SP-enol hydrolysed (40 mM NaOH, 10 min, room temperature); for content found by HPLC–MS/MS, sample treatment D: SP-enol without hydrolysis. Here is the method:
In order to simultaneously quantify SP and SP-enol contents in a sample, an in situ procedure for treating the sample with alkaline solution in order to hydrolyse SP into SP-enol was assessed. SP and SP-enol standard solutions were prepared in MilliQ water and diluted fivefold with 40 mM NaOH. The mixtures were incubated 10 min at room temperature and diluted twofold with dilution buffer (200 mM Tris·HCl buffer, pH 8.0, containing 280 mM NaCl). For the competitive step, enzyme tracer solutions were prepared in TBS-T (100 mM Tris·HCl buffer, pH 8.0, containing 140 mM NaCl and 0.05% (v/v) Tween-20). As shown in the inset of Table 2, the obtained standard curves of SP-enol and hydrolysed SP were almost identical. This hydrolysis procedure was validated by HPLC‒MS/MS. SP and SP-enol aqueous solutions (50 µg/mL) were treated with NaOH and, 10 min later, the pH was lowered as previously described. Then, 10 µL of hydrolysed and diluted sample was transferred into 990 µL of acetonitrile and dried with anhydrous MgSO4. Controls without the hydrolysis step were also evaluated. Finally, the contents of SP, SP-enol, SP-keto, and SP-mono in the organic extracts were quantified (Table 2). […] Those samples were also analysed with the studied direct cELISA by running SP-enol standard solutions that had been incubated in NaOH and diluted with dilution buffer like the samples. […] Consequently, the developed hydrolysis procedure seemed to perform adequately for SP and SP-enol residue quantification as SP-enol equivalents.
SP, SP-enol, SP-keto, and SP-mono standard solutions were prepared by serial dilution in acetonitrile from 1 to 2500 μg/L in amber glass vials and kept at − 20 °C. The injection volume was 5 µL and the column temperature was 45 °C. The analysis was carried out using a C18 reverse phase column with a gradient of 0.2% (v/v) formic acid in water (A) and acetonitrile (B) as mobile phase at a flow rate of 0.3 mL/min. The elution profile was 0‒3 min, from 5% B to 95% B, 3.0‒3.5 min, 95% B, 3.5‒3.6 min, from 95% B to 5% B, and 3.6‒8 min, 5% B. Spectra were acquired in positive ionization multiple reaction monitoring mode with interchannel delay of 0.02 s.

In another series the test system is mAbs to SP and SP-enol. As to the kind of experiment: Direct cELISA, binding of analytes and other pesticides by the generated mAbs. To be noted: other pesticides, insecticides and fungicides. Also on record: species or system mouse.
From the text: Six mouse mAbs were obtained; three were from immunogen BSA‒SPm—named SPm#23, SPm#25, and SPm#216—and three from conjugate BSA‒SPo—named SPo#227, SPo#237, and SPo#243. These antibodies contained κ light chains and were of the IgG1 isotype, except mAb SPm#25 which was IgG2a. The affinity to SP and SP-enol was studied by checkerboard cELISA in the capture antibody-coated direct format, using homologous and heterologous enzyme tracers (with the same or different hapten, respectively, than the immunizing conjugate). SP and SP-enol standards were prepared in PBS (10 mM phosphate buffer, pH 7.4, with 140 mM NaCl) and tracer solutions for the competitive step were prepared in PBS-T (PBS containing 0.05% (v/v) Tween-20). […] Tracers with linker site heterologies were not bound by the antibodies. The only exception was mAb SPm#23 which did recognize the heterologous HRP‒SPh conjugate. For this antibody, the spacer arm of hapten SPh was located at a more proximal site than that of hapten […]. The lowest IC50 value with the homologous tracer was around 3 nM for SP-enol whereas binding to SP was moderate (IC50 values were higher than 30 nM).
as §1, §2, §3, §4, §5, §6
8. Influence of pH and ionic strength […]
as §7
Combined heterologies for monoclonal antibody-based immunoanalysis of fluxapyroxad. Analyst 143, 5718‒

Each structure is given as a SMILES string.

Turning to `COC1CCC2(CC1)NC(=O)C(c1cc(C)ccc1C)=C2O[C@@H]1O[C@H](CO)[C@@H](O)[C@H](O)[C@H]1O` (some centres unmarked) [SP-glu, spirotetramat-enol-glucoside], the “CR (%)” value in the series with mAb SPm#23 worked out at 5.11%. Besides, the “affinity to SP-enol, times higher than to the analyte” value in the series with mAb SPm#23 (mAb SPm#23) was not below 20 times.

As for `COC1CCC2(CC1)NC(=O)C(O)(c1cc(C)ccc1C)C2=O` (centres unmarked) [SP-keto, spirotetramat-ketohydroxy], the “CR (%)” value with mAb SPm#23 is recorded as 0.02%. Further, the binding result in the series on mAb SPm#23 (mAb SPm#23) was “almost negligible”. In series [1], the “content found by HPLC–MS/MS, sample treatment A” value is recorded as 0.09; the “content found by HPLC–MS/MS, sample treatment B” value is given as 0.08; the “content found by HPLC–MS/MS, sample treatment C” value is 0.39; the “content found by HPLC–MS/MS, sample treatment D” value was determined as 0.43.

As for `COC1CCC2(CC1)NC(=O)C(c1cc(C)ccc1C)C2O` (centres unmarked) [SP-mono, spirotetramat-monohydroxy], the “CR (%)” value in the series with mAb SPm#23 is 0.19%. The binding entry with mAb SPm#23 (mAb SPm#23) is listed as “almost negligible”. Also, in series [1], the “content found by HPLC–MS/MS, sample treatment A” value is 0.01; the “content found by HPLC–MS/MS, sample treatment B” value turned out to be 0.12; the “content found by HPLC–MS/MS, sample treatment C” value is 0.02; the “content found by HPLC–MS/MS, sample treatment D” value amounted to 0.02.

On to `CO/C=C(/C(=O)OC)c1ccccc1Oc1cc(Oc2ccccc2C#N)ncn1` [azoxystrobin], for which the “binding by the antibodies” value with mAbs to SP and SP-enol was “did not bind”.

Take `O=C(Nc1ccccc1-c1ccc(Cl)cc1)c1cccnc1Cl` [boscalid]: the “binding by the antibodies” value in the series with mAbs to SP and SP-enol is “did not bind”.

As for `N#Cc1c(Cl)c(Cl)c(Cl)c(C#N)c1Cl` [chlorothalonil], the “binding by the antibodies” value in the series on mAbs to SP and SP-enol is on record as “did not bind”.

Regarding `Cc1cc(C2CC2)nc(Nc2ccccc2)n1` [cyprodinil], the “binding by the antibodies” value in the series on mAbs to SP and SP-enol was “did not bind”.

With `CC1(C)[C@H](C(=O)O[C@H](C#N)c2cccc(Oc3ccccc3)c2)[C@@H]1C=C(Br)Br` [deltamethrin], the “binding by the antibodies” value in the series on mAbs to SP and SP-enol is reported as “did not bind”.

For `CNC(=O)/C(=N/OC)c1ccccc1COc1cc(C)ccc1C` [dimoxystrobin], the “binding by the antibodies” value with mAbs to SP and SP-enol was “did not bind”.

Consider `CSC1=N[C@@](C)(c2ccccc2)C(=O)N1Nc1ccccc1` [fenamidone], for which the “binding by the antibodies” value in the series with mAbs to SP and SP-enol is “did not bind”.

As to `CC1(C(=O)Nc2ccc(O)c(Cl)c2Cl)CCCCC1` [fenhexamid], the “binding by the antibodies” value in the series with mAbs to SP and SP-enol is recorded as “did not bind”.

For the compound `CC(Cc1ccc(C(C)(C)C)cc1)CN1C[C@@H](C)O[C@@H](C)C1` (some centres unmarked) [fenpropimorph], the “binding by the antibodies” value in the series with mAbs to SP and SP-enol is listed as “did not bind”.

Consider `N#Cc1c[nH]cc1-c1cccc2c1OC(F)(F)O2` [fludioxonil], for which the “binding by the antibodies” value in the series on mAbs to SP and SP-enol is reported as “did not bind”.

Consider `O=[N+]([O-])NC1=NCCN1Cc1ccc(Cl)nc1` [imidacloprid], for which, in the series with mAbs to SP and SP-enol, the “binding by the antibodies” value was “did not bind”.

`C#CCOc1ccc(CCNC(=O)C(OCC#C)c2ccc(Cl)cc2)cc1OC` (centres unmarked) [mandipropamid]: in the series with mAbs to SP and SP-enol, the “binding by the antibodies” value is listed as “did not bind”.

Regarding `Oc1ccccc1-c1ccccc1` [o-phenylphenol], the “binding by the antibodies” value in the series with mAbs to SP and SP-enol is “did not bind”.

In the case of `CC12CC1(C)C(=O)N(c1cc(Cl)cc(Cl)c1)C2=O` (centres unmarked) [procymidone], the “binding by the antibodies” value in the series on mAbs to SP and SP-enol was “did not bind”.

`CCCOC(=O)NCCCN(C)C` [propamocarb]: the “binding by the antibodies” value with mAbs to SP and SP-enol is reported as “did not bind”.

As to `COC(=O)N(OC)c1ccccc1COc1ccn(-c2ccc(Cl)cc2)n1` [pyraclostrobin], the “binding by the antibodies” value with mAbs to SP and SP-enol is recorded as “did not bind”.

As for `Cc1cc(C)nc(Nc2ccccc2)n1` [pyrimethanil], the “binding by the antibodies” value in the series with mAbs to SP and SP-enol is “did not bind”.

Consider `CCC(C)(C)C(=O)OC1=C(c2ccc(Cl)cc2Cl)C(=O)OC12CCCCC2` [spirodiclofen], for which the “binding by the antibodies” value in the series with mAbs to SP and SP-enol was “did not bind”.

As to `Cc1cc(C)c(C2=C(OC(=O)CC(C)(C)C)C3(CCCC3)OC2=O)c(C)c1` [spiromesifen], in the series with mAbs to SP and SP-enol, the “binding by the antibodies” value is “did not bind”.

With `CCCN(CC)CC1COC2(CCC(C(C)(C)C)CC2)O1` (centres unmarked) [spiroxamine], the “binding by the antibodies” value in the series with mAbs to SP and SP-enol is on record as “did not bind”.

With `c1ccc2[nH]c(-c3cscn3)nc2c1` [thiabendazole], the “binding by the antibodies” value in the series with mAbs to SP and SP-enol is listed as “did not bind”.
